Data as given in ChEMBL document CHEMBL1201862, “PubChem BioAssay data set” (2004).
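Step 1: Grow cells in 96-well plates. Step 2: Expose to compound for 48 hours at 5 concentrations. Step 3: Interpolate endpoints linearly; if unreached, use highest concentration. Abbreviation: GI50, concentration required for 50% inhibition of growth.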 Active and inactive are the calls of the source. No stated cut-off is given here; in the data, active = GI50 up to about 1.1 µM and inactive = higher.

Columns and labels:
Experiment in all cases: NCI-60 cell line screen, 48 h
[1] = system: A498
[2] = system: BT-549
[3] = system: COLO 205
[4] = system: DU-145
[5] = system: EKVX
[6] = system: HCC 2998
[7] = system: HCT-116
[8] = system: HCT-15
[9] = system: HOP-92
[10] = system: Hs-578T
[11] = system: M14
[12] = system: PC-3
[13] = system: SF-295
[14] = system: SK-MEL-2
[15] = system: SK-MEL-5
[16] = system: SK-OV-3
[17] = system: SNB-75
[18] = system: SR
[19] = system: TK-10
[20] = system: U-251

Compound	GI50 [1]	GI50 [2]	GI50 [3]	GI50 [4]	GI50 [5]	GI50 [6]	GI50 [7]	GI50 [8] [µM]	GI50 [9]	GI50 [10]	GI50 [11]	GI50 [12]	GI50 [13]	GI50 [14]	GI50 [15]	GI50 [16]	GI50 [17]	GI50 [18]	GI50 [19]	GI50 [20]
Cc1c2cccc-2c(OCCO)cc2c1[nH]c1ccccc12	11.8 µM (inactive)	2.92 µM (inactive)	1.87 µM (inactive)	5.32 µM (inactive)	1.04 µM (active)	3.15 µM (inactive)	3.01 µM (inactive)	3.16	2.75 µM (inactive)	1.67 µM (inactive)	1.97 µM (inactive)	2.72 µM (inactive)	3.26 µM (inactive)	3.72 µM (inactive)	1.34 µM (inactive)	3.27 µM (inactive)	1.71 µM (inactive)	5.27 µM (inactive)	4.06 µM (inactive)	1.89 µM (inactive)
O=C(c1ccccc1)c1ccc2[nH]c(-c3c(Cl)c(Cl)c(Cl)c(Cl)c3-c3nnc(-c4ccccc4)o3)nc2c1	12.1 µM (inactive)	46 µM (inactive)	18.3 µM (inactive)	70.5 µM (inactive)	54.1 µM (inactive)	–	27.4 µM (inactive)	7.01	35.7 µM (inactive)	27.4 µM (inactive)	28.2 µM (inactive)	20.7 µM (inactive)	14.1 µM (inactive)	20 µM (inactive)	6.7 µM (inactive)	50.8 µM (inactive)	8.81 µM (inactive)	4.06 µM (inactive)	51.1 µM (inactive)	31.6 µM (inactive)
COP(=O)(OC)/C(=C/c1c[nH]c2ccccc12)C(=O)O	> 100 µM (inactive)	> 100 µM (inactive)	> 100 µM (inactive)	> 100 µM (inactive)	> 100 µM (inactive)	> 100 µM (inactive)	> 100 µM (inactive)	> 100	> 100 µM (inactive)	> 100 µM (inactive)	> 100 µM (inactive)	> 100 µM (inactive)	> 100 µM (inactive)	> 100 µM (inactive)	> 100 µM (inactive)	> 100 µM (inactive)	> 100 µM (inactive)	> 100 µM (inactive)	> 100 µM (inactive)	> 100 µM (inactive)
CC1(C)CC(=O)c2c(nc3ccc4ccccc4c3c2-c2ccc(NC(=O)CCCCC(=O)Nc3ccc(-c4c5c(nc6ccc7ccccc7c46)CC(C)(C)CC5=O)cc3)cc2)C1	> 100 µM (inactive)	> 100 µM (inactive)	> 100 µM (inactive)	> 100 µM (inactive)	> 100 µM (inactive)	–	> 100 µM (inactive)	> 100	> 100 µM (inactive)	> 100 µM (inactive)	> 100 µM (inactive)	> 100 µM (inactive)	> 100 µM (inactive)	> 100 µM (inactive)	> 100 µM (inactive)	> 100 µM (inactive)	> 100 µM (inactive)	> 100 µM (inactive)	> 100 µM (inactive)	> 100 µM (inactive)
COc1cc(/C=N/c2nc3cc4sc(/N=C/c5cc(OC)c(OC)c(OC)c5)nc4cc3s2)cc(OC)c1OC	> 100 µM (inactive)	> 100 µM (inactive)	28.4 µM (inactive)	> 100 µM (inactive)	42 µM (inactive)	> 100 µM (inactive)	39.4 µM (inactive)	55.2	> 100 µM (inactive)	> 100 µM (inactive)	66.8 µM (inactive)	52.1 µM (inactive)	56.8 µM (inactive)	72.4 µM (inactive)	37.1 µM (inactive)	> 100 µM (inactive)	75 µM (inactive)	21.7 µM (inactive)	> 100 µM (inactive)	46.1 µM (inactive)
C=C(C)C12CC(COC(=O)c3ccccc3)C34OC5(OC1C3C1OC1(CO)C(O)C1(O)C(OC(=O)c3ccccc3)C(C)C(C(C)CCCCCCC5O)C14)O2 (stereo not given)	60.4 µM (inactive)	> 100 µM (inactive)	< 0.01 µM (active)	53.8 µM (inactive)	58.6 µM (inactive)	< 0.01 µM (active)	52 µM (inactive)	54	> 100 µM (inactive)	26.5 µM (inactive)	27.2 µM (inactive)	38.8 µM (inactive)	31.2 µM (inactive)	> 100 µM (inactive)	11.6 µM (inactive)	> 100 µM (inactive)	> 82.8 µM (inactive)	18.5 µM (inactive)	< 0.01 µM (active)	32.6 µM (inactive)
CC(C)NCC(O)c1ccc(O)c2ncccc12 (stereo not given)	> 100 µM (inactive)	> 100 µM (inactive)	18.7 µM (inactive)	37.2 µM (inactive)	49.3 µM (inactive)	46 µM (inactive)	26.4 µM (inactive)	25.9	> 100 µM (inactive)	> 100 µM (inactive)	42.4 µM (inactive)	46.5 µM (inactive)	30.9 µM (inactive)	52.8 µM (inactive)	66.4 µM (inactive)	21.9 µM (inactive)	> 100 µM (inactive)	25.4 µM (inactive)	47.3 µM (inactive)	31.5 µM (inactive)
C[C@@]1(c2ccccc2)O[C@@H]2C[C@H]3[C@@H]4CCC5=CC(=O)C=C[C@]5(C)[C@@]4(F)[C@@H](O)C[C@]3(C)[C@]2(C(=O)CO)O1 [AMCINAFIDE]	18 µM (inactive)	18.2 µM (inactive)	14.4 µM (inactive)	20.1 µM (inactive)	12.4 µM (inactive)	17.3 µM (inactive)	14.6 µM (inactive)	17.9	22.3 µM (inactive)	18.7 µM (inactive)	16.1 µM (inactive)	16 µM (inactive)	16.7 µM (inactive)	14.4 µM (inactive)	14.9 µM (inactive)	–	26.9 µM (inactive)	19.3 µM (inactive)	19.5 µM (inactive)	17.7 µM (inactive)
Nc1nc(Cl)c(C=O)c(NCC2(CO)CCC2)n1	25.1 µM (inactive)	28.6 µM (inactive)	25.7 µM (inactive)	31.1 µM (inactive)	17.6 µM (inactive)	9.48 µM (inactive)	17.7 µM (inactive)	11.8	15.3 µM (inactive)	22.2 µM (inactive)	26.5 µM (inactive)	17.7 µM (inactive)	22.8 µM (inactive)	14.5 µM (inactive)	14.5 µM (inactive)	27.2 µM (inactive)	24 µM (inactive)	3.21 µM (inactive)	> 100 µM (inactive)	15.2 µM (inactive)
NC(Cc1nnn[nH]1)C(=O)O (stereo not given)	> 100 µM (inactive)	> 100 µM (inactive)	> 100 µM (inactive)	> 100 µM (inactive)	> 100 µM (inactive)	–	> 100 µM (inactive)	> 100	> 100 µM (inactive)	> 100 µM (inactive)	> 100 µM (inactive)	> 100 µM (inactive)	> 100 µM (inactive)	> 100 µM (inactive)	> 100 µM (inactive)	> 100 µM (inactive)	> 100 µM (inactive)	> 100 µM (inactive)	> 100 µM (inactive)	> 100 µM (inactive)
O=C(C(Cl)=C(N1CCCCC1)N1CCCCC1)C(Cl)Cl	> 100 µM (inactive)	> 100 µM (inactive)	> 100 µM (inactive)	> 100 µM (inactive)	> 100 µM (inactive)	> 100 µM (inactive)	> 100 µM (inactive)	> 100	> 100 µM (inactive)	> 100 µM (inactive)	> 100 µM (inactive)	> 100 µM (inactive)	> 100 µM (inactive)	–	> 100 µM (inactive)	> 100 µM (inactive)	–	> 100 µM (inactive)	> 100 µM (inactive)	–
CN1CCC2(c3ccccc3)CC(=O)/C(=C/c3ccc(Cl)c(Cl)c3)C1C2.[O-][Cl+3]([O-])([O-])O (stereo not given)	5.2 µM (inactive)	2.72 µM (inactive)	1.95 µM (inactive)	3.25 µM (inactive)	2.94 µM (inactive)	–	2.62 µM (inactive)	2.14	2.31 µM (inactive)	4.47 µM (inactive)	2.96 µM (inactive)	1.96 µM (inactive)	2.43 µM (inactive)	3.74 µM (inactive)	2.6 µM (inactive)	4.05 µM (inactive)	3.41 µM (inactive)	0.968 µM (active)	3.71 µM (inactive)	1.82 µM (inactive)
N#Cc1ccnc(C(=O)N2CCCC2C(=O)O)c1 (stereo not given)	> 100 µM (inactive)	> 100 µM (inactive)	> 100 µM (inactive)	> 100 µM (inactive)	> 100 µM (inactive)	> 100 µM (inactive)	> 100 µM (inactive)	> 100	> 100 µM (inactive)	> 100 µM (inactive)	> 100 µM (inactive)	> 100 µM (inactive)	> 100 µM (inactive)	> 100 µM (inactive)	> 100 µM (inactive)	–	> 100 µM (inactive)	> 100 µM (inactive)	> 100 µM (inactive)	> 100 µM (inactive)
CC(=O)Nc1ccc(C(O)/C(=N/N)c2nc3ccc(Cl)cc3nc2O)cc1 (stereo not given)	> 100 µM (inactive)	> 100 µM (inactive)	> 100 µM (inactive)	> 100 µM (inactive)	> 100 µM (inactive)	> 100 µM (inactive)	> 100 µM (inactive)	> 100	> 100 µM (inactive)	> 100 µM (inactive)	> 100 µM (inactive)	> 100 µM (inactive)	> 100 µM (inactive)	> 100 µM (inactive)	> 100 µM (inactive)	–	> 100 µM (inactive)	> 100 µM (inactive)	> 100 µM (inactive)	> 100 µM (inactive)
